According to article PMC12867150, “A fungi-derived cyclic peptide enhances Th9-mediated antitumor immunity by targeting ZAP70 and SREBP1” (The Journal of Clinical Investigation, 2025):

Assays:
human Th9 CAR T cells = experiment: IL-9 in human Th9 CAR T cells (S9D-E); assay type: cell-based; details: for IL-9 expression in human Th9 CAR-T cells: Supplemental Figure 9E; for IL-9 gate number: representative flow plot, Figure S9D
Text: (§1) Details regarding staining panels (human and mouse), reagents (including clones and catalog numbers), acquisition settings, compensation/controls, and analysis procedures are provided in Supplemental Methods. […]
(C) Flow-cytometric analysis of infection efficiency in Th9 cells transduced with a CD19-directed CAR lentivirus. (D and E) Flow-cytometric analysis of IL-9 expression in human Th9 CAR-T cells on days 5 and 6 of in vitro differentiation, showing representative plots (D) and quantification (E) (n = 3). […]
(H) and quantification (I) (n = 5 mice per group). Statistical analysis was performed using one-way ANOVA with Tukey’s post hoc test (A and B), or two-tailed unpaired Student’s t-test (E–G, and I). Repeated data are presented as mean ± SEM. *p < 0.05, […]
(also on this page, place not known: TP cells ANOV A 30IL-9+ cells (%) Fato Fato Fato Fato A SSC GzmB CtrlEpA MFIofMitoTracker (×102) GF NormalizedATPlevel CtrlEpA 4MFI of Mito Tracker (×105) CtrlEpA0 GzmB+ cells (%) CD4 10 20 IL-9+ cells (%) Day60 10 20 30 Ctrl) […]

dendritic cells (DCs) = experiment: Flow cytometry of dendritic cells (S1J-K); assay type: in vivo, mouse; design: key to Frequencies of DC in Spleen / Frequencies of DC in LN: % of cells; details: for Frequencies of DC in LN: Supplemental Figure 1K left; for number of DC in LN: Supplemental Figure 1K right; for DC (CD11c) gate number: representative flow plot; for Frequencies of DC in Spleen: Supplemental Figure 1J left; for number of DC in Spleen: Supplemental Figure 1J right
Experimental: C57BL/6 mice were subcutaneously injected with 5 × 10^5 B16-OVA melanoma cells. Five days after tumor implantation, mice received an intravenous infusion of 2 × 10^6 in vitro–differentiated Th9 cells (cultured for 5 days), which were derived from OT-II CD45.1 donor mice, accompanied by 4 × 10^5 OVA peptide–pulsed DCs via the tail vein. To enhance T cell engraftment and facilitate lymphodepletion, a single intraperitoneal injection of cyclophosphamide (200 mg/kg, Sigma, catalog C0768) was administered 1 day prior to T cell transfer. Mice were euthanized at designated time points for the collection and analysis of spleens, tumor-draining lymph nodes, and tumor tissues.
as §1
Figure S1. EpA enhances immune responses. […]
Representative plots, frequencies, and total numbers of dendritic cells (DCs) in […]
spleens (J) and LNs (K). […]
Statistical analysis was performed using two-way ANOVA with Tukey’s post hoc test (A), one-way ANOVA with Tukey’s post hoc test (B) or two-tailed unpaired Student’s t-test (D and G–M). ns, not significant. *p < 0.05, **p < 0.01, ****p < 0.0001.
(also on this page, place not known: Mouse weight (g) CtrlEpA CtrlEpA CtrlEpA0 I CD45.1+ T cells (%) CtrlEpA CD4+ T cells (%) CtrlEpA CtrlEpA CtrlEpA FSC CD8 CD8 FSC FSC FSC BNumber of CD45.1+ T cells (×103 per mgĎ Number of CD4+ T cells (×104 per mgĎ DC (%)NK cells (%) NK cells (%) DC (%) Number of DC (×103 per mg) Number of NK cells (×105) Number of NK cells (×103 per mg) Number of DC (×105) FSC FSC FSC CD8 CtrlEpA CtrlEpA CtrlEpA CD8+ T cells (%) Number of CD8+ T cells (×104 per mgĎ nsns ns nsns ns 40 IL-6 (pg/ml))

anteiso-C15 Leu7 surfactin [EpA]
IL-9 expression in human Th9 CAR-T cells (human Th9 CAR T cells; Day5, replicate 1): 27.7 | IL-9 expression in human Th9 CAR-T cells (human Th9 CAR T cells; Day5, replicate 2): 21.8 | IL-9 expression in human Th9 CAR-T cells (human Th9 CAR T cells; Day5, replicate 3): 25.1 | IL-9 gate number (human Th9 CAR T cells; Day5): 24.8 | IL-9 expression in human Th9 CAR-T cells (human Th9 CAR T cells; Day6, replicate 1): 6.55 | IL-9 expression in human Th9 CAR-T cells (human Th9 CAR T cells; Day6, replicate 2): 6.68 | IL-9 expression in human Th9 CAR-T cells (human Th9 CAR T cells; Day6, replicate 3): 6.84 | IL-9 gate number (human Th9 CAR T cells; Day6): 6.7 | IL-9 production, Th9 CAR T (human Th9 CAR T cells; result in words): increased IL-9 production | Frequencies of DC in LN (dendritic cells (DCs); LN, replicate 1): 2.19 | Frequencies of DC in LN (dendritic cells (DCs); LN, replicate 2): 1.85 | Frequencies of DC in LN (dendritic cells (DCs); LN, replicate 3): 1.69 | Frequencies of DC in LN (dendritic cells (DCs); LN, replicate 4): 1.46 | number of DC in LN (dendritic cells (DCs); LN, replicate 1): 3234.29 | number of DC in LN (dendritic cells (DCs); LN, replicate 2): 2390.2 | number of DC in LN (dendritic cells (DCs); LN, replicate 3): 1334.11 | number of DC in LN (dendritic cells (DCs); LN, replicate 4): 1093.89 | DC (CD11c) gate number (dendritic cells (DCs); LN, Figure S1K): 2.19 | Frequencies of DC in Spleen (dendritic cells (DCs); Spleen, replicate 1): 1.58 | Frequencies of DC in Spleen (dendritic cells (DCs); Spleen, replicate 2): 1.85 | Frequencies of DC in Spleen (dendritic cells (DCs); Spleen, replicate 3): 1.61 | Frequencies of DC in Spleen (dendritic cells (DCs); Spleen, replicate 4): 3.57 | number of DC in Spleen (dendritic cells (DCs); Spleen, replicate 1): 143005 | number of DC in Spleen (dendritic cells (DCs); Spleen, replicate 2): 161881 | number of DC in Spleen (dendritic cells (DCs); Spleen, replicate 3): 145729 | number of DC in Spleen (dendritic cells (DCs); Spleen, replicate 4): 275281 | DC (CD11c) gate number (dendritic cells (DCs); Spleen, Figure S1J): 1.85 | DC frequencies and total counts (dendritic cells (DCs); spleens and lymph nodes, result in words): significantly elevated
